Test results reported in patent US20220193201A1, “GLP-1R AGONIST REDUCES RETINAL INFLAMMATION AND NEURON DEATH SECONDARY TO OCULAR HYPERTENSION” (THE TRUSTEES OF THE UNIVERSITY OF PENNSYLVANIA, priority 2020, published 2022).

Columns and labels:
CD11b+ CD11c− cells = assay: qPCR of Il1a, Tnf, C1qa mRNA in CD11b+ CD11c- cells sorted from neurosensory retina of microbead-injected mice; assay type: in vivo, mouse; conditions: NLY01 5 mg/kg s.c. twice weekly vs NSS
CD11b+ CD11c+ cells = assay: qPCR of Il1a, Tnf, C1qa mRNA in CD11b+ CD11c+ cells sorted from neurosensory retina of microbead-injected mice; assay type: in vivo, mouse; conditions: NLY01 5 mg/kg s.c. twice weekly vs NSS
[1] = test system: ACSA2+ cells (astrocyte and Müller cell enriched); assay: qPCR of pan reactive, A1-specific transcripts and C3 in ACSA2+ retinal cells of microbead-injected mice; assay type: in vivo, mouse; conditions: NLY01 5 mg/kg s.c. twice weekly vs NSS
NFκB [2] = assay: phospho-NFκB/total NFκB ELISA and NFκBIA (IκBα) qPCR in sorted CD11b+ retinal cells of microbead-injected mice; assay type: in vivo, mouse; conditions: 42nd day post-injection; CD11b+ CD11c− and CD11b+ CD11c+ cells; NLY01 5 mg/kg s.c. twice weekly vs NSS
Description: FIGS. 11A-11D show NLY01 modulates NFκB signaling in CD11b+ CD11c− and CD11b+ CD11c+ cells. Related to FIGS. 4A-4H and 5A-5H. C57BL6/J (WT) mice were injected either with microbeads (“Bead”, left eye), to increase intraocular pressure (IOP), or with BSS (right eye). Following intraocular injections, mice were randomized to twice weekly subcutaneous NLY01 (5 mg kg^−1 per injection) or normal saline solution (NSS). 42 days post-injection mice were euthanized, neurosensory retina (“NSR”) was harvested and sorted as described in FIG. 9A to isolate CD11b+CD11c− and CD11b+ CD11c+ cells. […] All data presented as mean±SEM. Ordinary one-way ANOVA, *p<0.05, **p<0.01, ***p<0.001, ****p<0.0001.
ACSA2+, CD11b+ CD11c−, and CD11b+ CD11c+ cells were isolated from adult murine retinas using the Miltenyi Adult Brain Dissociation Kit (Miltenyi Biotec, 130-107-677) and MACS magnetic cell separation system. […]
ELISA kits were used to measure protein levels of IL-1α (BMS627, Thermofisher Scientific), TNF-α (BMS607-3, Thermofisher Scientific), C1q (LS-F55223-1, LifeSpan BioSciences), C3 (ab157711, Abcam), and phospho-NFκB/total NFκB (Thermofisher Scientific, 50-246-259) according to the manufacturer's protocol. […] Protein levels were determined by comparing the absorbance produced by the samples with that of a calibration curve. […]

[3] = test system: retinal ganglion cells (RGCs); assay: Retinal ganglion cell counting on retinal flatmounts (Brn3a, Rbpms), microbead eIOP model, subcutaneous NLY01; assay type: in vivo, mouse; conditions: 42 days; NLY01 5 mg/kg twice weekly vs NSS; bead eye normalized to BSS eye
[4] = cited from earlier work
NFκB [5] = conditions: GLP-1R-dependent manner; cited from earlier work
[6] = cited from earlier work; remark: listed apart in the source
[7] = Intraocular pressure (IOP) measurement in microbead-induced ocular hypertension mouse glaucoma model; conditions: NLY01 5 mg/kg s.c. twice weekly vs normal saline; IOP across the study
[8] = mouse model of Parkinson's disease

NLY01: pegylated exendin-4 (exenatide); long-acting GLP-1R agonist, obtained from Neuraly
CD11b+ CD11c− basal expression of C1q (CD11b+ CD11c− cells; 14th day post-injection): without altering
CD11b+ CD11c− basal expression of IL-1a (CD11b+ CD11c− cells; 14th day post-injection): without altering
CD11b+ CD11c− upregulation of TNF-α (CD11b+ CD11c− cells; 14th day post-injection): reduced
CD11b+ CD11c− expression of C1q (CD11b+ CD11c− cells; 42nd day post-injection): reduced
CD11b+ CD11c− expression of IL-1α (CD11b+ CD11c− cells; 42nd day post-injection): reduced
CD11b+ CD11c− expression of TNF-α (CD11b+ CD11c− cells; 42nd day post-injection): reduced
CD11b+ CD11c+ expression of C1q (CD11b+ CD11c+ cells; 14th day post-injection): reduced
CD11b+ CD11c+ expression of IL-1α (CD11b+ CD11c+ cells; 14th day post-injection): reduced
CD11b+ CD11c+ expression of TNF-α (CD11b+ CD11c+ cells; 14th day post-injection): reduced
second cell population (CD11b+ CD11c−) expression of C1q (CD11b+ CD11c+ cells; 42nd day post-injection): reduced
second cell population (CD11b+ CD11c−) expression of IL-1α (CD11b+ CD11c+ cells; 42nd day post-injection): reduced
second cell population (CD11b+ CD11c−) expression of TNF-α (CD11b+ CD11c+ cells; 42nd day post-injection): reduced
expression of A1-specific transcripts in ACSA2+ fraction ([1]; 14th day post-injection): reduced
expression of C3 in ACSA2+ fraction ([1]; 14th day post-injection): reduced
expression of pan reactive transcripts in ACSA2+ fraction ([1]; 14th day post-injection): reduced
expression of A1-specific transcripts in ACSA2+ fraction ([1]; 42nd day post-injection): reduced
expression of C3 in ACSA2+ fraction ([1]; 42nd day post-injection): reduced
expression of pan reactive transcripts in ACSA2+ fraction ([1]; 42nd day post-injection): reduced
mRNA levels of IκBα (NFκB [2]): increased
phosphorylated NFκB protein levels (NFκB [2]): decreased
RGC death secondary to eIOP, Brn3a+ cell counting [3]: reduced
RGC death secondary to eIOP, RBPMS+ cell counting [3]: reduced
microglia density [4, 8]: reduces
relative IBA1 levels [4, 8]: reduces
A1 astrocyte transformation ([4]; mouse models of PD): blocking
dopaminergic cell death ([4]; mouse models of PD): reducing
microglial production of C1q, TNF-α, and IL-1α ([4]; mouse models of PD): reduce
motor symptoms ([4]; mouse models of PD): improving
nuclear translocation and phosphorylation of NFκB in brain microglia (NFκB [5]): reduce
blood-brain barrier penetration ([6]; in vivo): favorable
half-life ([6]; in vivo): extended
NLY01 concentrations in the brain, Parkinson's disease mouse models vs WT animals ([6]; mouse models of Parkinson's disease): higher
effect on intraocular pressure in microbead- or BSS-injected eyes [7]: no effect
